From patent US20090012103A1, “SUBSTITUTED HETEROCYCLIC COMPOUNDS” (priority 2007, published 2009)
Where two headings read alike, the source gives them in different places.

How the values were obtained:
[1] = biological target: wild-type human cardiac sodium channel, hNav1.5 (Homo sapiens, UniProt Q14524); assay: Late INa screening assay (late sodium current, PatchXpress whole cell patch clamp); format: cell-based; conditions: for inhibition at 10 µM: read-out: Late INa % blk
hERG potassium channel = hERG potassium channel (Homo sapiens, UniProt Q12809); assay: hERG screening assay (PatchXpress patch clamp, CHO cell line)
Sequence of hERG potassium channel (Q12809 whole entry): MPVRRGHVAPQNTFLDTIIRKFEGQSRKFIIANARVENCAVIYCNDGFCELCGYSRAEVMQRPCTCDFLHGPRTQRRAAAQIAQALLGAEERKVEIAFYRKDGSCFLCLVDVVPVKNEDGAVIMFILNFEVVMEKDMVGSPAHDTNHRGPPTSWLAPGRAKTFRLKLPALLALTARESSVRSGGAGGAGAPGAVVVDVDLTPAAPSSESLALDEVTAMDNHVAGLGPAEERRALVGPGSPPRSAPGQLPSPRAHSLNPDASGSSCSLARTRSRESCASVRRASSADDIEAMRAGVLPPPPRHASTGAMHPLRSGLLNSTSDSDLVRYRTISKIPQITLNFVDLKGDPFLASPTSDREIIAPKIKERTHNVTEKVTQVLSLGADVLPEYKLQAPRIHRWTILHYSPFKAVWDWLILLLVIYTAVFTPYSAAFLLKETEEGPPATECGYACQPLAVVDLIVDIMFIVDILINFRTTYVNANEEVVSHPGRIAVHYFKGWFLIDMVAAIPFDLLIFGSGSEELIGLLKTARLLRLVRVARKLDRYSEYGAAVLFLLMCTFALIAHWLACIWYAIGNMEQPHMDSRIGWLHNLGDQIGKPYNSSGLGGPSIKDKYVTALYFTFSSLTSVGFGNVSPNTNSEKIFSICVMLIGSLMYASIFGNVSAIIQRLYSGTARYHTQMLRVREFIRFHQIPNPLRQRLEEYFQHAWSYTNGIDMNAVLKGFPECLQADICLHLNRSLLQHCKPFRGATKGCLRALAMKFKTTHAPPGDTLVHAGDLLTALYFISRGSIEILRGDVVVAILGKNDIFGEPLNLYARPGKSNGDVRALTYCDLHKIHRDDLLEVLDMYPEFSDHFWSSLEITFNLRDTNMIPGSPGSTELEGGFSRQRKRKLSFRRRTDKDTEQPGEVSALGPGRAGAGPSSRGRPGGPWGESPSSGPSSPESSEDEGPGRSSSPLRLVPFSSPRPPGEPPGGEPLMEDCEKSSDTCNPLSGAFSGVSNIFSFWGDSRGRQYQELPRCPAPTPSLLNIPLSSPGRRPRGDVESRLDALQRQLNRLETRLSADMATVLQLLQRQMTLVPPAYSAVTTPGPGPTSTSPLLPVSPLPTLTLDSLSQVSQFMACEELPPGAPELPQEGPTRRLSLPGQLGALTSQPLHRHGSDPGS
Method: Compounds were screened to test their activity in blocking the hERG potassium channel. The hERG channel is heterologously expressed in a CHO (Chinese Hamster Ovary) cell line. Cells are maintained with standard tissue culture procedures and stable channel expression is maintained with 500 μg/ml G418 in the culture medium. Cells are harvested for testing on the PatchXpress automated patch clamp with Accumax (Innovative Cell Technologies, San Diego, Calif.) to isolate single cells.
The following solutions are used for electrophysiological recordings. The external solution contains: 2 mM CaCl2; 2 mM MgCl2; 4 mM KCl; 150 mM NaCl; 10 mM Glucose; 10 mM HEPES (pH 7.4 with 1M NaOH, osmolarity).
hERG channels are activated when the voltage is stepped to +20 mV from the −80 mV holding potential (see FIG. 3). During a 5 second step at +20 mV, the channels activate and then largely inactivate, so the currents are relatively small. Upon returning to −50 mV from +20 mV, hERG currents transiently become much larger as inactivation is rapidly removed and then the channel closes. The first step to −50 mV for 300 ms is used as a baseline for measuring the peak amplitude during the step to −50 mV after channel activation. The peak current at −50 mV is measured both under control conditions and after addition of compound.
All compounds are prepared as 10 mM DMSO stocks in glass vials. Stock solutions are mixed by vigorous vortexing and sonication for about 2 minutes at room temperature. For testing, compounds are diluted in glass vials using an intermediate dilution step in pure DMSO and then further diluted to working concentrations in external solution. Dilutions are prepared no longer than 20 minutes before use.
After achieving the whole-cell configuration, cells are monitored for 90 seconds to assess stability and washed with external solution for 66 seconds. The voltage protocol described above is then applied to the cells every 12 seconds and throughout the whole procedure. Only cells with stable recording parameters and meeting specified health criteria are allowed to enter the compound addition procedure.
External solution containing 0.1% DMSO (vehicle) is applied to the cells first to establish the control peak current amplitude. After allowing the current to stabilize for 3 to 5 minutes, 1 μM and then 10 μM test compounds are applied. Each compound concentration is added 4 times and cells are kept in test solution until the effect of the compound reaches steady state or for a maximum of 12 minutes. […] Washout in the external solution compartment is performed until the recovery of the current reaches steady state. Data are analyzed using DataXpress, Clampfit (Molecular Devices, Inc., Sunnyvale) and Origin 7 (Originlab Corp.)

Sequence of wild-type human cardiac sodium channel, hNav1.5 (Q14524 whole entry): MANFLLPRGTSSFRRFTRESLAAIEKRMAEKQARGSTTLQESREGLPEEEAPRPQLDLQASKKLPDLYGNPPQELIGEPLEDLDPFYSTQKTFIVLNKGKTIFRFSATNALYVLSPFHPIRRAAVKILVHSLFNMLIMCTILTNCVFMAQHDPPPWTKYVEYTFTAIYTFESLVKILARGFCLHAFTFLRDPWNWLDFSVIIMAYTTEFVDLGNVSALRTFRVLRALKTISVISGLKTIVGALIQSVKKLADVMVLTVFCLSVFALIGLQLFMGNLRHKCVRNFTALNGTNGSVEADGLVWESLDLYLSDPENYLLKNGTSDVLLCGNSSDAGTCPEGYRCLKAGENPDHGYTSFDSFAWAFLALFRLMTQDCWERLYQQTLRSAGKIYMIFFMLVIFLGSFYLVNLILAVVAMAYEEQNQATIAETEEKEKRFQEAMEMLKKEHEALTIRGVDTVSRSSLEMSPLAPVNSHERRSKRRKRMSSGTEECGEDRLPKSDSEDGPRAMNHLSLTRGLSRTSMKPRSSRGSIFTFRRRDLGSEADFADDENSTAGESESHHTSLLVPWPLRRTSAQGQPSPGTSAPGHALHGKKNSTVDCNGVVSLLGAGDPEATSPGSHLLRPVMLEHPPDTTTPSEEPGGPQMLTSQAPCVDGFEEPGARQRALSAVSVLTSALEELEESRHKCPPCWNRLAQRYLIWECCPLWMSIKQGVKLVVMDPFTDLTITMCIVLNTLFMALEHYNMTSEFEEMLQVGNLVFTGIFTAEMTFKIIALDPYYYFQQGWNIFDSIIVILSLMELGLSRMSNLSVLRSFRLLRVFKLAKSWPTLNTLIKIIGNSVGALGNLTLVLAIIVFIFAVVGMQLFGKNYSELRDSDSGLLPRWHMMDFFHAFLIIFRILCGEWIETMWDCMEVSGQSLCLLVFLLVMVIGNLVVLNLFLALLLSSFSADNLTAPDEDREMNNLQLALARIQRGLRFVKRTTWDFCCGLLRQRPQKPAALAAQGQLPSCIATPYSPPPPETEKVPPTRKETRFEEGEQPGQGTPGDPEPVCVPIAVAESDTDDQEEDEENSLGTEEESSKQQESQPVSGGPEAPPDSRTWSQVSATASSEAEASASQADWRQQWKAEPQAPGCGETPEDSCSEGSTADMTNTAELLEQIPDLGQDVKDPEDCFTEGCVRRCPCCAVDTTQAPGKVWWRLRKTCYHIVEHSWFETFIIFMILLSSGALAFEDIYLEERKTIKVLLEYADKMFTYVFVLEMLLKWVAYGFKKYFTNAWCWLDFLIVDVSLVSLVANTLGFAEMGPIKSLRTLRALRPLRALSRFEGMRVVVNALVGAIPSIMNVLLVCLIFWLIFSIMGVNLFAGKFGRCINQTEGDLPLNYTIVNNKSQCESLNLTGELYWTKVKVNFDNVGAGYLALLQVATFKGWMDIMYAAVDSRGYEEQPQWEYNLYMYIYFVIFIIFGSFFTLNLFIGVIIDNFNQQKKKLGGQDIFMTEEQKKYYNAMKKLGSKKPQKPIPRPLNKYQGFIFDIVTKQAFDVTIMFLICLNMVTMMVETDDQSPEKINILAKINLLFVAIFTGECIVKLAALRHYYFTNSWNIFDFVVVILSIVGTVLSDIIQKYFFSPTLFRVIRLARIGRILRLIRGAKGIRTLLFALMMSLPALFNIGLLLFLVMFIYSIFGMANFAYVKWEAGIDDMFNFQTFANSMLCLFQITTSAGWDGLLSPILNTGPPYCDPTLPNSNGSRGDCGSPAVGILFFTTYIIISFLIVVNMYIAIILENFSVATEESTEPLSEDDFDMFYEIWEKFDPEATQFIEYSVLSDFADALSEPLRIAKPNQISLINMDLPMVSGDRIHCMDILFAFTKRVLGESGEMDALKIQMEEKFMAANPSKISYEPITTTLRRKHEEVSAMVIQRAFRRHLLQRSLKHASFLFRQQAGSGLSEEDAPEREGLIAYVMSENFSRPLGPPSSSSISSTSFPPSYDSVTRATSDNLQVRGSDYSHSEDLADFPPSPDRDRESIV

Compound	inhibition at 10 µM [1] [%]	hERG Patch Clamp hERG % blk (hERG potassium channel; 1 μM) [%]	hERG Patch Clamp hERG % blk (hERG potassium channel; 10 μM) [%]	inhibition at 10 µM ([1]; compound at 10 μM) [%]	Late INa % blk ([1]; compound at 10 μM) [%]	effect on late sodium current ([1]; result in words)
CCOC(=O)C1=C(C)Nc2nnnn2C1c1sc2ccccc2c1C (stereo not drawn) [PT-018, ethyl 5-methyl-7-(3-methylbenzo[b]thiophen-2-yl)-4,7-dihydrotetrazolo[1,5-a]pyrimidine-6-carboxylate]	36.5	14.5	36.5			
CC1=C(C(=O)O[C@@H](C)c2ccccc2)[C@@H](c2cccc3ccccc23)n2nnnc2N1 [PT-050, (R)-((S)-1-phenylethyl) 5-methyl-7-(naphthalen-1-yl)-4,7-dihydrotetrazolo[1,5-a]pyrimidine-6-carboxylate]		10.0	53.5	94		
CCOC(=O)C1=C(C)Nc2nnnn2C1c1csc2ccccc12 (stereo not drawn) [PT-017, ethyl 7-(benzo[b]thiophen-3-yl)-5-methyl-4,7-dihydrotetrazolo[1,5-a]pyrimidine-6-carboxylate]		10.0	23.5	45.9		
CC(=O)c1ccc(-c2ccccc2C2C(C(=O)OCc3ccccc3)=C(C)Nc3nnnn32)cc1 (stereo not drawn) [PT-415, benzyl 7-(4′-acetylbiphenyl-2-yl)-5-methyl-4,7-dihydrotetrazolo[1,5-a]pyrimidine-6-carboxylate]		10.5	38.5	75.4		
CC1=C(C(=O)OCc2ccc(Cn3cccn3)cc2)C(c2cccs2)n2nnnc2N1 (stereo not drawn) [PT-280, 4-((1H-pyrazol-1-yl)methyl)benzyl 5-methyl-7-(thiophen-2-yl)-4,7-dihydrotetrazolo[1,5-a]pyrimidine-6-carboxylate]		11.5	48.0	45.9		
CC1=C(C(=O)OCc2ccc(Cn3cccn3)cc2)C(c2cccc3ccccc23)n2nnnc2N1 (stereo not drawn) [PT-279, 4-((1H-pyrazol-1-yl)methyl)benzyl 5-methyl-7-(naphthalen-1-yl)-4,7-dihydrotetrazolo[1,5-a]pyrimidine-6-carboxylate]		12.5	45.0	61.2		
CC1=C(C(=O)NCc2ccccc2)C(c2ccsc2)C2=C(CCCC2=O)N1 (stereo not drawn) [PT-178, N-benzyl-2-methyl-5-oxo-4-(thiophen-3-yl)-1,4,5,6,7,8-hexahydroquinoline-3-carboxamide]		11.5	30.0	0.3		
H-furo[3,4-e]pyrazolo[3,4-b]pyridin-5(4H)-one [PT-079]		57.5	96.5		49.0	
CC1=C(C(=O)OCc2ccccc2)C(c2occc2-c2ccc(F)cc2)n2nnnc2N1 (stereo not drawn) [PT-396, benzyl 7-(3-(4-fluorophenyl)furan-2-yl)-5-methyl-4,7-dihydrotetrazolo[1,5-a]pyrimidine-6-carboxylate]		10.0	32.0	80.7		
CC1=C(C(=O)OCc2ccccc2)C(c2sccc2-c2ccc(F)cc2)n2nnnc2N1 (stereo not drawn) [PT-397, benzyl 7-(3-(4-fluorophenyl)thiophen-2-yl)-5-methyl-4,7-dihydrotetrazolo[1,5-a]pyrimidine-6-carboxylate]		10.0	25.0	69.1		
CC1=C(C(=O)OCc2ccccc2)C(c2cccc3c2OCO3)n2nnnc2N1 (stereo not drawn) [PT-034, benzyl 7-(benzo[d][1,3]dioxol-4-yl)-5-methyl-4,7-dihydrotetrazolo[1,5-a]pyrimidine-6-carboxylate]		14.5	56.0	52.4		
CCOC(=O)C1=C(C)NC(C)=C(C(=O)OCC)C1c1cccs1 [PT-111, diethyl 2,6-dimethyl-4-(thiophen-2-yl)-1,4-dihydropyridine-3,5-dicarboxylate]		11.5	48.5	69.2		
CC1=C(C(=O)N2CCC(c3ccccc3)CC2)C(c2ccsc2)C2=C(CCCC2=O)N1 (stereo not drawn) [PT-163, 2-methyl-3-(4-phenylpiperidine-1-carbonyl)-4-(thiophen-3-yl)-4,6,7,8-tetrahydroquinolin-5(1H)-one]		15.0	53.5			potentiated late sodium current
CC1=C(C(=O)OCc2ccccc2)C(c2ccccc2N2CCCCC2)n2nnnc2N1 (stereo not drawn) [PT-342, benzyl 5-methyl-7-(2-(piperidin-1-yl)phenyl)-4,7-dihydrotetrazolo[1,5-a]pyrimidine-6-carboxylate]		10.0	47.5	80.1		
COc1ccc(COC(=O)C2=C(C)Nc3nnnn3C2c2cccc3ccccc23)cc1OC (stereo not drawn) [PT-061, 3,4-dimethoxybenzyl 5-methyl-7-(naphthalen-1-yl)-4,7-dihydrotetrazolo[1,5-a]pyrimidine-6-carboxylate]		24.0	46.5	37.3		
CCCC1=C(C(=O)OCC)C(c2ccsc2)C2=C(CC(c3ccco3)CC2=O)N1 (stereo not drawn) [PT-150, ethyl 7-(furan-2-yl)-5-oxo-2-propyl-4-(thiophen-3-yl)-1,4,5,6,7,8-hexahydroquinoline-3-carboxylate]		28.2	49.3	52.9		
CCOC(=O)C1=C(C(C)C)NC(C(C)C)=C(C(=O)OCC)C1c1ccc(Br)s1 [PT-183, diethyl 4-(5-bromothiophen-2-yl)-2,6-diisopropyl-1,4-dihydropyridine-3,5-dicarboxylate]		10.0	10.0	54		
CC1=C(C(=O)OCc2ccccc2)[C@@H](c2ccccc2-c2ccc(Cl)s2)n2nnnc2N1 [PT-237, (R)-benzyl 7-(2-(5-chlorothiophen-2-yl)phenyl)-5-methyl-4,7-dihydrotetrazolo[1,5-a]pyrimidine-6-carboxylate]		11.5	22.5	61.5		
CCCC1=C(C(=O)OCC)C(c2ccc(C(=O)O)cc2)C2=C(CC(C)(C)CC2=O)N1 (stereo not drawn) [PT-133, 4-(3-(ethoxycarbonyl)-7,7-dimethyl-5-oxo-2-propyl-1,4,5,6,7,8-hexahydroquinolin-4-yl)benzoic acid]		10.0	12.0	-27.5		
CC1=C(C(=O)NCc2ccccc2)C(c2ccc3ccccc3c2)n2nnnc2N1 (stereo not drawn) [PT-068, N-benzyl-5-methyl-7-(naphthalen-2-yl)-4,7-dihydrotetrazolo[1,5-a]pyrimidine-6-carboxamide]		14.0	22.5	14.3		
CCOC(=O)C1=C(C)Nc2nnnn2C1c1ccccc1-n1cccn1.Cl (stereo not drawn) [PT-477, ethyl 7-(2-(1H-pyrazol-1-yl)phenyl)-5-methyl-4,7-dihydrotetrazolo[1,5-a]pyrimidine-6-carboxylate hydrochloride]		12.0	44.0	6.2		
